The NIST ThermoML archive (doi:10.1021/je060271a)
Values joined by “and” are separate entries in the source; they are usually repeats but may differ in a detail not shown here. Equal values may be shown once.

Details: Liquid, Vibrating tube method

CCCCCCCC(=O)OCC(COC(=O)CCCCCCC)(COC(=O)CCCCCCC)COC(=O)CCCCCCC [pentaerythritol tetraoctanoate]
Details | mass density
303.15 K, 32860 kPa | 974.3 kg/m3
303.15 K, 32891 kPa | 974.3 kg/m3
303.15 K, 32922 kPa | 974.2 kg/m3
303.15 K, 32960 kPa | 974.3 kg/m3
303.15 K, 32992 kPa | 974.4 kg/m3
303.15 K, 33022 kPa | 974.3 kg/m3
303.15 K, 33060 kPa | 974.4 kg/m3
303.15 K, 33092 kPa | 974.4 kg/m3
303.15 K, 33129 kPa | 974.4 kg/m3
303.15 K, 33161 kPa | 974.4 kg/m3
303.15 K, 33192 kPa | 974.4 kg/m3
303.15 K, 33231 kPa | 974.5 kg/m3
303.15 K, 33263 kPa | 974.4 kg/m3
303.15 K, 33295 kPa | 974.5 kg/m3
303.15 K, 33327 kPa | 974.5 kg/m3
303.15 K, 33366 kPa | 974.6 kg/m3
303.15 K, 33398 kPa | 974.6 kg/m3
303.15 K, 33437 kPa | 974.6 kg/m3
303.15 K, 33469 kPa | 974.5 kg/m3
303.15 K, 33502 kPa | 974.6 kg/m3
303.15 K, 33541 kPa | 974.8 kg/m3
303.15 K, 33574 kPa | 974.6 kg/m3
303.15 K, 33607 kPa | 974.6 kg/m3
303.15 K, 33647 kPa | 974.7 kg/m3
303.15 K, 33682 kPa | 974.8 kg/m3
303.15 K, 33716 kPa | 974.7 kg/m3
303.15 K, 33760 kPa | 974.6 kg/m3
303.15 K, 33796 kPa | 974.8 kg/m3
303.15 K, 33832 kPa | 974.9 kg/m3
303.15 K, 33864 kPa | 974.9 kg/m3
303.15 K, 33892 kPa | 974.7 kg/m3
303.15 K, 33915 kPa | 974.9 kg/m3
303.15 K, 33938 kPa | 974.8 kg/m3
303.15 K, 33965 kPa | 975 kg/m3
303.15 K, 33988 kPa | 974.9 kg/m3
303.15 K, 34016 kPa | 974.8 kg/m3
303.15 K, 34039 kPa | 974.9 kg/m3
303.15 K, 34062 kPa | 975 kg/m3
303.15 K, 34092 kPa | 974.9 kg/m3
303.15 K, 34116 kPa | 975 kg/m3
303.15 K, 34141 kPa | 974.9 kg/m3
303.15 K, 34166 kPa | 975 kg/m3
303.15 K, 34196 kPa | 974.9 kg/m3
303.15 K, 34222 kPa | 975 kg/m3
303.15 K, 34255 kPa | 975.2 kg/m3
303.15 K, 34284 kPa | 975.1 kg/m3
303.15 K, 34313 kPa | 975 kg/m3
303.15 K, 34325 kPa | 975 kg/m3
303.15 K, 34326 kPa | 975.1 kg/m3
303.15 K, 34328 kPa | 975.1 kg/m3
303.15 K, 34329 kPa | 975.2 kg/m3
303.15 K, 34330 kPa | 975.2 kg/m3
303.15 K, 34332 kPa | 975.2 kg/m3
303.15 K, 34333 kPa | 975.1 kg/m3 and 975.2 kg/m3
303.15 K, 34335 kPa | 975.1 kg/m3
303.15 K, 34336 kPa | 975 kg/m3
303.15 K, 34337 kPa | 975 kg/m3
303.15 K, 34339 kPa | 975 kg/m3
303.15 K, 34340 kPa | 975 kg/m3 and 975.1 kg/m3
303.15 K, 34342 kPa | 975 kg/m3
303.15 K, 34343 kPa | 975 kg/m3
303.15 K, 34349 kPa | 975.1 kg/m3
303.15 K, 34350 kPa | 975 kg/m3
303.15 K, 34361 kPa | 975.2 kg/m3
303.15 K, 34371 kPa | 975.2 kg/m3
303.15 K, 34374 kPa | 975 kg/m3
303.15 K, 34375 kPa | 975.2 kg/m3
303.15 K, 34377 kPa | 975.2 kg/m3
303.16 K, 3295.7 kPa | 957.4 kg/m3
303.16 K, 3309.7 kPa | 957.5 kg/m3
303.16 K, 3323.8 kPa | 957.4 kg/m3
303.16 K, 3335.4 kPa | 957.5 kg/m3
303.16 K, 3349.9 kPa | 957.5 kg/m3
303.16 K, 3364.5 kPa | 957.5 kg/m3
303.16 K, 3376.5 kPa | 957.4 kg/m3
303.16 K, 3390.8 kPa | 957.6 kg/m3
303.16 K, 3405.4 kPa | 957.4 kg/m3
303.16 K, 3418 kPa | 957.6 kg/m3
303.16 K, 3432.9 kPa | 957.5 kg/m3
303.16 K, 3447.8 kPa | 957.5 kg/m3
303.16 K, 3460.5 kPa | 957.5 kg/m3
303.16 K, 3475.7 kPa | 957.5 kg/m3
303.16 K, 3490.8 kPa | 957.6 kg/m3
303.16 K, 3504 kPa | 957.5 kg/m3
303.16 K, 3519.7 kPa | 957.6 kg/m3
303.16 K, 3535.3 kPa | 957.7 kg/m3
303.16 K, 3548.8 kPa | 957.5 kg/m3
303.16 K, 3564.8 kPa | 957.5 kg/m3
303.16 K, 3593.9 kPa | 957.6 kg/m3
303.16 K, 3609.8 kPa | 957.6 kg/m3
303.16 K, 3626.1 kPa | 957.6 kg/m3
303.16 K, 3640.3 kPa | 957.7 kg/m3
303.16 K, 3656.9 kPa | 957.6 kg/m3
303.16 K, 3671 kPa | 957.7 kg/m3
303.16 K, 3688.1 kPa | 957.8 kg/m3
323.14 K, 32674 kPa | 960.8 kg/m3
323.14 K, 32807 kPa | 961 kg/m3
323.15 K, 104.51 kPa | 940.7 kg/m3
323.15 K, 104.52 kPa | 940.7 kg/m3 and 940.6 kg/m3
323.15 K, 105.05 kPa | 940.7 kg/m3
323.15 K, 105.56 kPa | 940.7 kg/m3
323.15 K, 107.29 kPa | 940.7 kg/m3
323.15 K, 110.42 kPa | 940.7 kg/m3
323.15 K, 119.65 kPa | 940.6 kg/m3
323.15 K, 137.02 kPa | 940.6 kg/m3
323.15 K, 166.4 kPa | 940.7 kg/m3
323.15 K, 245.49 kPa | 940.7 kg/m3
323.15 K, 268.79 kPa | 940.8 kg/m3
323.15 K, 281.82 kPa | 940.8 kg/m3
323.15 K, 299.57 kPa | 941 kg/m3
323.15 K, 315.89 kPa | 940.9 kg/m3
323.15 K, 333.79 kPa | 940.8 kg/m3
323.15 K, 351.71 kPa | 940.9 kg/m3
323.15 K, 362.82 kPa | 940.9 kg/m3
323.15 K, 374.29 kPa | 940.8 kg/m3
323.15 K, 388.88 kPa | 941 kg/m3
323.15 K, 401.56 kPa | 941 kg/m3
323.15 K, 413.39 kPa | 941 kg/m3
323.15 K, 427.29 kPa | 940.9 kg/m3
323.15 K, 439.11 kPa | 940.9 kg/m3
323.15 K, 449.2 kPa | 941 kg/m3
323.15 K, 461 kPa | 940.9 kg/m3
323.15 K, 471.78 kPa | 941 kg/m3
323.15 K, 482.73 kPa | 940.9 kg/m3
323.15 K, 496.63 kPa | 940.9 kg/m3
323.15 K, 509.14 kPa | 940.9 kg/m3
323.15 K, 522.17 kPa | 941 kg/m3
323.15 K, 538.51 kPa | 941.1 kg/m3
323.15 K, 552.59 kPa | 941 kg/m3
323.15 K, 567.71 kPa | 940.9 kg/m3
323.15 K, 586.82 kPa | 941 kg/m3
323.15 K, 621.05 kPa | 941 kg/m3
323.15 K, 643.29 kPa | 941.1 kg/m3
323.15 K, 663.11 kPa | 941 kg/m3
323.15 K, 684.47 kPa | 941.1 kg/m3
323.15 K, 711.74 kPa | 941 kg/m3
323.15 K, 735.9 kPa | 941.1 kg/m3
323.15 K, 761.44 kPa | 941.1 kg/m3
323.15 K, 788.7 kPa | 941.2 kg/m3
323.15 K, 806.43 kPa | 941.1 kg/m3
323.15 K, 824.32 kPa | 941.2 kg/m3
323.15 K, 839.78 kPa | 941.2 kg/m3
323.15 K, 855.59 kPa | 941.1 kg/m3
323.15 K, 972.85 kPa | 941.4 kg/m3
323.15 K, 994.21 kPa | 941.3 kg/m3
323.15 K, 1021.5 kPa | 941.4 kg/m3
323.15 K, 1039.6 kPa | 941.3 kg/m3
323.15 K, 1067.7 kPa | 941.3 kg/m3
